{"source": "patent US20250101009A1", "about": "“Compounds, Compositions and Methods for Treatment of Age-Related Ocular Disorders” (priority 2022, published 2025)", "key": {"acetylcholinesterase": {"target": "T1, acetylcholinesterase (Homo sapiens, UniProt P22303)", "T1 construct": "purchased", "T1 sequence (P22303 32-614, species assumed)": "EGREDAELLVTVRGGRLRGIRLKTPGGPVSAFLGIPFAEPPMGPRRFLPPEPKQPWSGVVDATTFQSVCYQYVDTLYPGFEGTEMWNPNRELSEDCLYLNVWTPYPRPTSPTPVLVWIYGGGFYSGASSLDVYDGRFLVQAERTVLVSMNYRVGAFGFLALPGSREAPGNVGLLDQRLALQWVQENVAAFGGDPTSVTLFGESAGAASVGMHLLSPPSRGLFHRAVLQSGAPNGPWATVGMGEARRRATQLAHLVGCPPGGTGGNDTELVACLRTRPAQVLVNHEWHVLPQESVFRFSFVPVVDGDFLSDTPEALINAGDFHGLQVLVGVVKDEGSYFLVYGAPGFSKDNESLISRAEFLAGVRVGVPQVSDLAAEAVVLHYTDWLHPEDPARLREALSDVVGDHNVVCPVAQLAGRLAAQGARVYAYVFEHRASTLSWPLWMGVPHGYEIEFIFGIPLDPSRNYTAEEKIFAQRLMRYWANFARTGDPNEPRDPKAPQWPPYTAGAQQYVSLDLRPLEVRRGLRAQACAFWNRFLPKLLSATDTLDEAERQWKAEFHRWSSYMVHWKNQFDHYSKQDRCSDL", "assay": "Hydrolysis study in vitro with acetylcholinesterase (HPLC)", "assay_type": "in vitro ADME", "conditions": "for assay of compound remaining during enzymatic hydrolysis: acetylcholinesterase 2.0 mg/ml, simulated tear pH 7.4, 37.5° C.", "procedure": "The commercial esterase was dissolved in simulated tear (pH 7.4). Dissolving an appropriate amount of the compounds of the invention in solvent. The stock solutions were kept in screw-capped vials at 4° C. The reaction was initiated by adding stock solution of the prodrug to preheated esterase solution in a screw-capped vial at 37.5° C. The solution was kept in a water bath at 37.5° C. and at appropriate time intervals. 20 mL aliquot was taken and, after filtration using membrane syringe filter, analyzed immediately by HPLC.\nThe tear fluid was prepared by dissolving sodium chloride (0.67%, w/v), sodium bicarbonate (0.2% w/v) and calcium chloride dihydrate (0.008% w/v) in water and pH was adjusted to 7.4.\n(§1) The acetylcholinesterase was dissolved in simulated tear (pH 7.4) to give a concentration of 2.0 mg/ml. Dissolving the appropriate number of compound 1 in pH 7.0 buffer solution to obtain a concentration of […]. The stock solutions were kept in screw-capped vials at 4° C. The reaction was initiated by adding 20 uL of a stock solution of the compound 1 in pH 7.0 buffer solution to 1 ml of preheated esterase solution in a screw-capped vial at 37.5° C., for a total of 10 identical reaction solutions. The reaction solutions were kept in a water bath at 37.5° C. and at 20 min intervals an aliquot was taken and, after filtration using membrane syringe filter, analyzed immediately by HPLC.\nas §1, with “compound 2” for “compound 1”, “20 μL” for “20 uL”, “of 11” for “of 10”\nas §1, with “compound 3” for “compound 1”, “20 μL” for “20 uL”, “1 mL” for “1 ml”, “of 12” for “of 10”"}, "rabbit pupil": {"tested_on": "rabbit pupil", "assay": "Miotic effect in rabbits (pupil diameter)", "assay_type": "in vivo, male New Zealand White rabbits", "procedure": "The ocular activity evaluation based on the miotic effect in rabbits\nThe pupil size was determined for several compounds in male New Zealand White rabbits. Pilocarpine hydrochloride (Vuity™) was used as positive control. The pupillometer was placed in the eye socket of the rabbit, and the camera was taken 0 min before and 5 min, 10 min, 15 min, 30 min, 45 min and 1 h after dosing. For the latter picture, take three photos at each time point. After the experiment, the pictures were sorted out to observe the pupil change trend after dosing. This method can be used to evaluate whether the miotic agent moiety in the compounds of the invention can constrict the rabbit's pupil.\nUnder a constant light source (light intensity 40 Lux), the rabbits were fixed in the rabbit box without anesthesia. Before the experiment, the pupil diameter (mm) before drug administration was measured with a pupil measuring ruler and photographed. […] The time of administration was recorded, and the pupil diameter was measured with a pupillometer and photographed with Canon EOS M6 Mark II (SLR) after 5 min, 10 min, 15 min, 30 min, 45 min, 1 h, 2 h, 3 h, 4 h and 5 h, respectively. […]"}, "[1]": {"conditions": "assay decreased more with increasing time"}}, "data": [{"molecule": "CC[C@@H]1C(=O)OC[C@@H]1Cc1c[n+](CCOCCOCCOC(=O)CCCC[C@@H]2CCSS2)cn1C", "note": "[Compound 3, 3-(2-(2-(2-((5-((R)-1,2-dithiolan-3-yl)pentanoyl)oxy)ethoxy)ethoxy)ethyl)-5-(((3R,4S)-4-ethyl-5-oxotetrahydrofuran-3-yl)methyl)-1-methyl-1H-imidazol-3-ium]", "values": [{"measurement": "assay of compound remaining during enzymatic hydrolysis", "setting": "acetylcholinesterase; 0 min", "result": 95.40, "unit": "%"}, {"measurement": "assay of compound remaining during enzymatic hydrolysis", "setting": "acetylcholinesterase; 20 min", "result": 88.83, "unit": "%"}, {"measurement": "assay of compound remaining during enzymatic hydrolysis", "setting": "acetylcholinesterase; 40 min", "result": 88.26, "unit": "%"}, {"measurement": "assay of compound remaining during enzymatic hydrolysis", "setting": "acetylcholinesterase; 60 min", "result": 79.40, "unit": "%"}, {"measurement": "assay of compound remaining during enzymatic hydrolysis", "setting": "acetylcholinesterase; 80 min", "result": 75.30, "unit": "%"}, {"measurement": "assay of compound remaining during enzymatic hydrolysis", "setting": "acetylcholinesterase; 100 min", "result": 70.87, "unit": "%"}, {"measurement": "assay of compound remaining during enzymatic hydrolysis", "setting": "acetylcholinesterase; 120 min", "result": 68.62, "unit": "%"}, {"measurement": "assay of compound remaining during enzymatic hydrolysis", "setting": "acetylcholinesterase; 140 min", "result": 63.48, "unit": "%"}, {"measurement": "assay of compound remaining during enzymatic hydrolysis", "setting": "acetylcholinesterase; 160 min", "result": 62.92, "unit": "%"}, {"measurement": "assay of compound remaining during enzymatic hydrolysis", "setting": "acetylcholinesterase; 180 min", "result": 59.60, "unit": "%"}, {"measurement": "assay of compound remaining during enzymatic hydrolysis", "setting": "acetylcholinesterase; 200 min", "result": 54.50, "unit": "%"}, {"measurement": "assay of compound remaining during enzymatic hydrolysis", "setting": "acetylcholinesterase; 220 min", "result": 55.89, "unit": "%"}, {"measurement": "assay of compound remaining during enzymatic hydrolysis", "setting": "acetylcholinesterase; 240 min", "result": 51.61, "unit": "%"}, {"measurement": "hydrolysis by acetylcholinesterase (in words)", "setting": "acetylcholinesterase; [1]", "result": "hydrolyzed by acetylcholinesterase"}]}, {"molecule": "CC[C@@H]1C(=O)OC[C@@H]1Cc1c[n+](COC(=O)CCCC[C@@H]2CCSS2)cn1C", "note": "[Compound 1, 3-(((5-((R)-1,2-dithiolan-3-yl)pentanoyl)oxy)methyl)-5-(((3R,4S)-4-ethyl-5-oxotetrahydrofuran-3-yl)methyl)-1-methyl-1H-imidazol-3-ium chloride]", "values": [{"measurement": "assay of compound remaining during enzymatic hydrolysis", "setting": "acetylcholinesterase; 0 min", "result": 70.29, "unit": "%"}, {"measurement": "assay of compound remaining during enzymatic hydrolysis", "setting": "acetylcholinesterase; 20 min", "result": 56.17, "unit": "%"}, {"measurement": "assay of compound remaining during enzymatic hydrolysis", "setting": "acetylcholinesterase; 40 min", "result": 34.03, "unit": "%"}, {"measurement": "assay of compound remaining during enzymatic hydrolysis", "setting": "acetylcholinesterase; 60 min", "result": 30.13, "unit": "%"}, {"measurement": "assay of compound remaining during enzymatic hydrolysis", "setting": "acetylcholinesterase; 80 min", "result": 19.93, "unit": "%"}, {"measurement": "assay of compound remaining during enzymatic hydrolysis", "setting": "acetylcholinesterase; 100 min", "result": 17.19, "unit": "%"}, {"measurement": "assay of compound remaining during enzymatic hydrolysis", "setting": "acetylcholinesterase; 120 min", "result": 15.06, "unit": "%"}, {"measurement": "assay of compound remaining during enzymatic hydrolysis", "setting": "acetylcholinesterase; 140 min", "result": 11.77, "unit": "%"}, {"measurement": "assay of compound remaining during enzymatic hydrolysis", "setting": "acetylcholinesterase; 160 min", "result": 8.45, "unit": "%"}, {"measurement": "assay of compound remaining during enzymatic hydrolysis", "setting": "acetylcholinesterase; 180 min", "result": 6.94, "unit": "%"}, {"measurement": "assay of compound remaining during enzymatic hydrolysis", "setting": "acetylcholinesterase; 200 min", "result": 5.05, "unit": "%"}, {"measurement": "hydrolysis by acetylcholinesterase (in words)", "setting": "acetylcholinesterase; after 200 minutes", "result": "hydrolyzed by acetylcholinesterase almost completely"}, {"measurement": "rabbit pupil under treatment (recorded images)", "setting": "rabbit pupil", "result": "shrinking"}, {"measurement": "miotic effect in rabbits versus positive control", "setting": "rabbit pupil; 1.25%, 20 μL/eye topical, compared with Vuity 1.25%", "result": "comparable to the positive control drug"}]}, {"molecule": "CC[C@@H]1C(=O)OC[C@@H]1Cc1c[n+](CCOC(=O)CCCC[C@@H]2CCSS2)cn1C", "note": "[Compound 2, 3-(2-((5-((R)-1,2-dithiolan-3-yl)pentanoyl)oxy)ethyl)-5-(((3R,4S)-4-ethyl-5-oxotetrahydrofuran-3-yl)methyl)-1-methyl-1H-imidazol-3-ium chloride]", "values": [{"measurement": "assay of compound remaining during enzymatic hydrolysis", "setting": "acetylcholinesterase; 0 min", "result": 100.00, "unit": "%"}, {"measurement": "assay of compound remaining during enzymatic hydrolysis", "setting": "acetylcholinesterase; 20 min", "result": 95.69, "unit": "%"}, {"measurement": "assay of compound remaining during enzymatic hydrolysis", "setting": "acetylcholinesterase; 40 min", "result": 88.08, "unit": "%"}, {"measurement": "assay of compound remaining during enzymatic hydrolysis", "setting": "acetylcholinesterase; 60 min", "result": 86.47, "unit": "%"}, {"measurement": "assay of compound remaining during enzymatic hydrolysis", "setting": "acetylcholinesterase; 80 min", "result": 80.61, "unit": "%"}, {"measurement": "assay of compound remaining during enzymatic hydrolysis", "setting": "acetylcholinesterase; 100 min", "result": 77.56, "unit": "%"}, {"measurement": "assay of compound remaining during enzymatic hydrolysis", "setting": "acetylcholinesterase; 120 min", "result": 75.40, "unit": "%"}, {"measurement": "assay of compound remaining during enzymatic hydrolysis", "setting": "acetylcholinesterase; 140 min", "result": 72.81, "unit": "%"}, {"measurement": "assay of compound remaining during enzymatic hydrolysis", "setting": "acetylcholinesterase; 160 min", "result": 68.28, "unit": "%"}, {"measurement": "assay of compound remaining during enzymatic hydrolysis", "setting": "acetylcholinesterase; 180 min", "result": 65.90, "unit": "%"}, {"measurement": "assay of compound remaining during enzymatic hydrolysis", "setting": "acetylcholinesterase; 200 min", "result": 63.68, "unit": "%"}, {"measurement": "assay of compound remaining during enzymatic hydrolysis", "setting": "acetylcholinesterase; 220 min", "result": 60.88, "unit": "%"}, {"measurement": "hydrolysis by acetylcholinesterase (in words)", "setting": "acetylcholinesterase; [1]", "result": "hydrolyzed by acetylcholinesterase"}]}]}
